Reference: EP3436445B1, “HISTONE DEMETHYLASE INHIBITORS” (Celgene Quanticel Research, Inc., priority 2016, dated 2017)

Target: T1, FBXL10 (Homo sapiens, UniProt Q8NHM5)
T1 construct: purchased BPS Bioscience 50120
T1 sequence (Q8NHM5 1-650): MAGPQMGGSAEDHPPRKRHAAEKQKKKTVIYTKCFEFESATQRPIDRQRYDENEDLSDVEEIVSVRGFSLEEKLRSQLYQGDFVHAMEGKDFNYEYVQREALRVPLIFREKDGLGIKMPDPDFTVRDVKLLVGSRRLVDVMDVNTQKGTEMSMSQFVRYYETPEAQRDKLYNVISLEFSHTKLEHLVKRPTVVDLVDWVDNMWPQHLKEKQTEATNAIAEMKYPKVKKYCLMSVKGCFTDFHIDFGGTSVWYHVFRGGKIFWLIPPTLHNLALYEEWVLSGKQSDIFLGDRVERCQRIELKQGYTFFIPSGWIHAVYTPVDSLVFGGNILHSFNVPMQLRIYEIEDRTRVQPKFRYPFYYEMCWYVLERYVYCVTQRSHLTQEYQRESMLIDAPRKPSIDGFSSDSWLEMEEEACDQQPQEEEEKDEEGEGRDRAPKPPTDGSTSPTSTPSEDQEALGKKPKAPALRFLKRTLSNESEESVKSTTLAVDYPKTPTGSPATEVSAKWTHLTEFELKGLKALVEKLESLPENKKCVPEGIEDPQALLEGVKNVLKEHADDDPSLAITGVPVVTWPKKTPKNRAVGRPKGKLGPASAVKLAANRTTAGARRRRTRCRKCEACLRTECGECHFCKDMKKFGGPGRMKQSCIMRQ
Assay: FBXL10 in vitro enzyme inhibition assay (AlphaScreen)
Type: biochemical
Text: This assay determines the ability of a test compound to inhibit FBXL11, FBXL10, and PHF8 demethylase activity. Baculovirus expressed FBXL11 (GenBank Accession #NM_012308, AA1-1162) was purchased from BPS Bioscience (Cat#50102). Baculovirus expressed FBXL10 (GenBank Accession #NM_032590, AA 1-650) was purchased from BPS Bioscience (Cat #50120). Baculovirus expressed PHF8 (GenBank Accession NP_055922.1) was purchased from Active Motif (Cat#31435).
The ability of test compounds to inhibit the activity of FBXL10 was determined in 384-well plate format under the following reaction conditions: 0.3 nM FBXL10, 30 nM H3K36me2-biotin labeled peptide (Anaspec cat # 64442), 0.2 µM alpha-ketoglutaric acid in assay buffer of 50 mM HEPES, pH7.3, 0.005% Brij35, 0.5 mM TCEP, 0.2 mg/ml BSA, 50 µM sodium L-ascorbate, 5 µM ammonium iron(II) sulfate. Reaction product is determined quantitatively by AlphaScreen detection after the addition of detection reagents anti-H3K36me1 antibody, AlphaScreen® Streptavidin-coated Donor beads, and AlphaScreen® Protein A Acceptor beads in 50 mM HEPES, pH7.3, 10 mM NaCl, 0.005% Brij35, 5 mM EDTA, 2 mg/ml BSA to final 10 µg/ml beads.
The assay reaction was initiated by the following: 3 µl of the mixture of 90 nM H3K36me2-biotin labeled peptide and 0.6 µM alpha-ketoglutaric acid with 3 µl of 11-point serial diluted inhibitor in 3% DMSO are added to each well of 384 well Proxiplate (Perkin Elmer), followed by the addition of 3 µl of 0.9 nM FBXL10 to initiate the reaction. The reaction mixture is incubated at room temperature for 1 hour, and terminated by the addition of 3 µl of appropriate dilution of anti H3K36me1 antibody in 50 mM HEPES, pH7.3, 10 mM NaCl, 0.005% Brij35, 5 mM EDTA, 2 mg/ml BSA. Plates will then incubated at room temperature for 40 minutes, followed by addition of 3 µl of 50 µg/ml AlphaScreen® Streptavidin-coated Donor beads and AlphaScreen® Protein A Acceptor beads in 50 mM HEPES, pH7.3, 10 mM NaCl, 0.005% Brij35, 5 mM EDTA, 2 mg/ml BSA. Plates will then be read by EnVision Multilabel Reader in AlphaScreen mode after minimum 2 hour incubation at room temperature. The AlphaScreen signal for each well is used to determine inhibition constant (IC50).

[1] = Table 3, 0.3 nM FBXL10, H3K36me2-biotin labeled peptide

SMILES	IC50 (Table 5)	IC50 [1]
Fc1cccc2c1CCCC2Cn1cnc(-c2cc(-c3nn[nH]c3C(F)(F)F)ccn2)c1 (centres unmarked) [Example 99, 2-{1-[(5-fluoro-1,2,3,4-tetrahydronaphthalen-1-yl)methyl]-1H-imidazol-4-yl}-4-[5-(trifluoromethyl)-1H-1,2,3-triazol-4-yl]pyridine]	100 to 1000 nM	–
Cc1ccc2c(c1)CCCC2Cn1cnc(-c2cc(-c3nn[nH]c3C(F)(F)F)ccn2)c1 (centres unmarked) [Example 102, 2-{1-[(6-methyl-1,2,3,4-tetrahydronaphthalen-1-yl)methyl]-1H-imidazol-4-yl}-4-[5-(trifluoromethyl)-1H-1,2,3-triazol-4-yl]pyridine]	1000 to 10000 nM	–
FC(F)(F)COc1ccccc1Cn1cnc(-c2cc(-c3nn[nH]c3C(F)(F)F)ccn2)c1 [Example 76, 2-(1-{[2-(2,2,2-trifluoroethoxy)phenyl]methyl}-1H-imidazol-4-yl)-4-[5-(trifluoromethyl)-1H-1,2,3-triazol-4-yl]pyridine]	100 to 1000 nM	–
Fc1ccc(CCn2cnc(-c3cc(-c4nn[nH]c4C(F)(F)F)ccn3)c2)cc1 [Example 77]	≤ 100 nM	–
FC(F)(F)c1[nH]nnc1-c1ccnc(-c2cn(Cc3ccccc3)cn2)c1 [Example 72, 2-(1-benzyl-1H-imidazol-4-yl)-4-[5-(trifluoromethyl)-1H-1,2,3-triazol-4-yl]pyridine]	≤ 100 nM	–
CC(c1ccccc1)n1cnc(-c2cc(-c3nn[nH]c3C(F)(F)F)ccn2)c1 (centres unmarked) [Example 73, 2-[1-(1-phenylethyl)-1H-imidazol-4-yl]-4-[5-(trifluoromethyl)-1H-1,2,3-triazol-4-yl]pyridine]	≤ 100 nM	–
Fc1cccc(CCn2cnc(-c3cc(-c4nn[nH]c4C(F)(F)F)ccn3)c2)c1F [Example 79, 2-{1-[2-(2,3-difluorophenyl)ethyl]-1H-imidazol-4-yl}-4-[5-(trifluoromethyl)-1H-1,2,3-triazol-4-yl]pyridine]	≤ 100 nM	–
COc1ccc2c(c1)C(Cn1cnc(-c3cc(-c4nn[nH]c4C(F)(F)F)ccn3)c1)CCC2 (centres unmarked) [Example 106, 2-{1-[(7-methoxy-1,2,3,4-tetrahydronaphthalen-1-yl)methyl]-1H-imidazol-4-yl}-4-[5-(trifluoromethyl)-1H-1,2,3-triazol-4-yl]pyridine]	100 to 1000 nM	–
Fc1ccc(CCn2cnc(-c3cc(-c4nn[nH]c4C(F)(F)F)ccn3)c2)c(F)c1 [Example 86, 2-{1-[2-(2,4-difluorophenyl)ethyl]-1H-imidazol-4-yl}-4-[5-(trifluoromethyl)-1H-1,2,3-triazol-4-yl]pyridine]	≤ 100 nM	–
Fc1cccc(F)c1CCn1cnc(-c2cc(-c3nn[nH]c3C(F)(F)F)ccn2)c1 [Example 87, 2-{1-[2-(2,6-difluorophenyl)ethyl]-1H-imidazol-4-yl}-4-[5-(trifluoromethyl)-1H-1,2,3-triazol-4-yl]pyridine]	≤ 100 nM	–
FC(F)(F)c1ccc(CCn2cnc(-c3cc(-c4nn[nH]c4C(F)(F)F)ccn3)c2)cc1 [Example 94, 4-[5-(trifluoromethyl)-1H-1,2,3-triazol-4-yl]-2-(1-{2-[4-(trifluoromethyl)phenyl]ethyl}-1H-imidazol-4-yl)pyridine]	100 to 1000 nM	–
Fc1ccc2c(c1)C(Cn1cnc(-c3cc(-c4nn[nH]c4C(F)(F)F)ccn3)c1)CCC2 (centres unmarked) [Example 101, 2-{1-[(7-fluoro-1,2,3,4-tetrahydronaphthalen-1-yl)methyl]-1H-imidazol-4-yl}-4-[5-(trifluoromethyl)-1H-1,2,3-triazol-4-yl]pyridine]	100 to 1000 nM	–
Cc1ccc(Cn2cnc(-c3cc(-c4nn[nH]c4C(F)(F)F)ccn3)c2)cc1 [Example 65, 2-{1-[(4-methylphenyl)methyl]-1H-imidazol-4-yl}-4-[5-(trifluoromethyl)-1H-1,2,3-triazol-4-yl]pyridine]	≤ 100 nM	–
FC(F)(F)c1[nH]nnc1-c1ccnc(-c2cn(CCc3ccc(Cl)cc3)cn2)c1 [Example 92, 2-{1-[2-(4-chlorophenyl)ethyl]-1H-imidazol-4-yl}-4-[5-(trifluoromethyl)-1H-1,2,3-triazol-4-yl]pyridine]	≤ 100 nM	–
Clc1ccc(Cn2cnc(-c3cc4[nH]nnc4cn3)c2)cc1Cl [Example 48, 1-[(3,4-dichlorophenyl)methyl]-4-{1H-[1,2,3]triazolo[4,5-c]pyridin-6-yl}-1H-imidazole]	–	≤ 100 nM
Fc1cccc(F)c1Cn1cnc(-c2cc(-c3nn[nH]c3C(F)(F)F)ccn2)c1 [Example 69, 2-{1-[(2,6-difluorophenyl)methyl]-1H-imidazol-4-yl}-4-[5-(trifluoromethyl)-1H-1,2,3-triazol-4-yl]pyridine]	≤ 100 nM	–
Fc1ccc2c(c1)CCCC2Cn1cnc(-c2cc(-c3nn[nH]c3C(F)(F)F)ccn2)c1 (centres unmarked) [Example 100, 2-{1-[(6-fluoro-1,2,3,4-tetrahydronaphthalen-1-yl)methyl]-1H-imidazol-4-yl}-4-[5-(trifluoromethyl)-1H-1,2,3-triazol-4-yl]pyridine]	100 to 1000 nM	–
Fc1ccccc1Cn1cnc(-c2cc(-c3nn[nH]c3C(F)(F)F)ccn2)c1 [Example 62, 2-{1-[(2-fluoroprtenyl)methyl]-1H-imidazol-4-yl}-4-[5-(trifluoromethyl)-1H-1,2,3-triazol-4-yl]pyridine]	≤ 100 nM	–
Cc1ccccc1Cn1cnc(-c2cc(-c3nn[nH]c3C(F)(F)F)ccn2)c1 [Example 66, 2-{1-[(2-methylphenyl)methyl]-1H-imidazol-4-yl}-4-[5-(trifluoromethyl)-1H-1,2,3-triazol-4-yl]pyridine]	≤ 100 nM	–
COc1ccc(Cn2cnc(-c3cc(-c4nn[nH]c4C(F)(F)F)ccn3)c2)cc1 [Example 67, 2-{1-[(4-methoxyphenyl)methyl]-1H-imidazol-4-yl}-4-[5-(trifluoromethyl)-1H-1,2,3-triazol-4-yl]pyridine]	≤ 100 nM	–
FC(F)(F)c1[nH]nnc1-c1ccnc(-c2cn(CC3CCOc4ccccc43)cn2)c1 (centres unmarked) [Example 98, 2-{1-[(3,4-dihydro-2H-1-benzopyran-4-yl)methyl]-1H-imidazol-4-yl}-4-[5-(trifluoromethyl)-1H-1,2,3-triazol-4-yl]pyridine]	≤ 100 nM	–
CCC(c1ccccc1)n1cnc(-c2cc(-c3nn[nH]c3C(F)(F)F)ccn2)c1 (centres unmarked) [Example 74, 2-[1-(1-phenylpropyl)-1H-imidazol-4-yl]-4-[5-(trifluoromethyl)-1H-1,2,3-triazol-4-yl]pyridine]	≤ 100 nM	–
Clc1ccccc1Cn1cnc(-c2cc3[nH]nnc3cn2)c1 [Example 45, 1-[(2-chlorophenyl)methyl]-4-{1H-[1,2,3]triazolo[4,5-c]pyridin-6-yl}-1H-imidazole]	–	≤ 100 nM
c1ccc(Cn2cnc(-c3cc4[nH]nnc4cn3)c2)cc1 [Example 44, 1-benzyl-4-{1H-[1,2,3]triazolo[4,5-c]pyridin-6-yl}-1H-imidazole]	–	≤ 100 nM
Cc1cc(F)ccc1Cn1cnc(-c2cc(-c3nn[nH]c3C(F)(F)F)ccn2)c1 [Example 70, 2-{1-[(4-fluoro-2-methylphenyl)methyl]-1H-imidazol-4-yl}-4-[5-(trifluoromethyl)-1H-1,2,3-triazol-4-yl]pyridine]	≤ 100 nM	–
O=C(c1ccccc1)N1CCC[C@H](n2cnc(-c3cc(-c4nn[nH]c4C(F)(F)F)ccn3)c2)C1 [Example 90, 2-{1-[(3S)-1-benzoylpiperidin-3-yl]-1H-imidazol-4-yl}-4-[5-(trifluoromethyl)-1H-1,2,3-triazol-4-yl]pyridine]	≤ 100 nM	–
